Earlier results, collected in patent US8410057B2, “Method of inducing T cell apoptosis by administering Altered Peptide Ligand” (Centro de Ingenieria Genetica y Biotecnologia, priority 2008, dated 2013).

Test system: monocytes and activated lamina propria T cells
Settings: Crohn's disease patients; Van den Brande et al. 2003

For Etanercept, the induction of apoptosis is given as “does not induce cell apoptosis”.

For “infliximab: chimeric monoclonal antibody that binds to and neutralizes free and bound TNFα”, the induction of apoptosis is listed as “induce apoptosis of monocytes and activated lamina propria T cells”.
